Reference: publication PMC8143339, “PK/PD Modeling of the PDE7 Inhibitor—GRMS-55 in a Mouse Model of Autoimmune Hepatitis” (Pharmaceutics, 2021)
Converted amounts (≈) assume the structure as drawn. Where two headings read alike, the source gives them in different places.

Tests used:
ConA-induced hepatitis [1] = experiment: Preliminary pharmacological evaluation in ConA-induced hepatitis; assay type: in vivo, BALB/c mice; details: 8 h after ConA 20 mg/kg IV; IP pretreatment: rolipram 10, BRL-50481 50, GRMS-55 50 mg/kg; vs vehicle control
Description: (§1) ConA was dissolved in sterile saline (2 mg·mL^−1). The studied compounds (GRMS-55, rolipram, and BRL-50481) were dissolved in a mixture of DMSO, PEG 400, and water for injection at a ratio of 25:25:50 (v/v/v). Mice were given an IP injection of the investigated compounds or the corresponding volume of vehicle alone and, thirty minutes later, intravenously (IV) administered with ConA solution. An additional control group received vehicle alone IP instead of the studied compounds followed by IV injection of sterile saline. ConA was given at a dose of 20 mg·kg^−1. Mice were exsanguinated at several time points post-ConA injection. Blood samples were allowed to clot for 0.5 h at room temperature and then centrifuged at 3000× g for 10 min to obtain the serum, which was stored at −20 °C until further analysis.
(§2) The influence of PDE inhibitors on the levels of inflammatory mediators and transaminases in ConA-treated mice was investigated in two separate experiments. In the preliminary study, the animals were pretreated IP with GRMS-55 at a dose of 50 mg·kg^−1, the PDE4-selective inhibitor rolipram at a dose of 10 mg·kg^−1, or the PDE7-selective inhibitor BRL-50481 at a dose of 50 mg·kg^−1. Doses of the investigated compounds were chosen based on the results of previous studies. Subsequently, mice were given an IV injection of ConA and sacrificed at 8 h following mitogen dosing. The levels of TNF-α, IL-6, and IFN-γ and the activities of ALT and AST in the mouse serum were measured. This preliminary experiment allowed comparing the activity of the studied PDE inhibitors in this AIH model and helped to select the doses of GRMS-55 for a subsequent pharmacodynamic study. In the final pharmacodynamic experiment, GRMS-55 was administered at two dose levels (50 and 100 mg·kg^−1) followed by ConA administration at a dose of 20 mg·kg^−1. Animals were sacrificed at various time points post-ConA dosing (1, 2, 4, 8 and 24 h). The levels of TNF-α, IL-1β, IL-4, IL-6, IL-10, IL-12, IL-17A, and IFN-γ were measured using a multiplex Luminex assay. In addition, the activities of ALT and AST in the mouse serum were assessed. The concentration–time profiles of the selected biomarkers obtained in this experiment combined with the results of pharmacokinetic analysis allowed the development of a semi-mechanistic PK/PD/disease progression model and the investigation of concentration–effect relationships of GRMS-55.
(§3) The serum samples from the preliminary pharmacological study were analyzed using ELISA tests according to the protocols provided by the manufacturers. The TNF-α concentrations were measured using the Mouse TNF-α Quantikine ELISA Kit (R&D Systems, Minneapolis, MN, USA), while the concentrations of IL-6 and IFN-gamma were quantified by ELISA kits manufactured by Cloud-Clone Corp. (Houston, TX, USA). The absorbance of samples was measured on a POLARstar Omega multi-mode microplate reader (BMG LABTECH, Ortenberg, Germany) set at 450 nm wavelength. TNF-α, IL-1β, IL-6, IL-4, IL-10, IL-12, IL-17A, and IFN-γ serum levels in samples from pharmacodynamic experiment were determined by a premixed Magnetic Luminex Assay (R&D Systems, Inc., Minneapolis, MN, USA) according to the manufacturer’s protocol. Serum AST and ALT activities were quantified on a chemistry analyzer BS-800 (Shenzhen Mindray Bio-medical Electronics Co., Ltd., Shenzhen, China).

ConA-induced hepatitis [2] = experiment: Pharmacodynamic study and PK/PD/disease progression modeling in ConA-induced hepatitis; assay type: in vivo, female BALB/c mice; details: for IC50: Mus musculus, serum concentration, PK/PD model, IP 50 or 100 mg/kg, ConA 20 mg/kg IV
Description: as §1, §2, §3
A PK/PD/disease progression model illustrated in Figure 1 was developed considering the mechanism of action of the investigated compound and the mechanisms of progression of ConA-induced hepatitis, i.e., the subsequent stages leading to the production and release of relevant biomarkers.
Moreover, possible interrelationships and interactions among the measured biomarkers were considered during the model building process. […]

- IC50 (ConA-induced hepatitis [2]; read-out: IC50_IFN-γ, concentration resulting in 50% of Imax of IFN-γ): 12.3 µg/mL (≈ 24.4 µM)
- IC50 (ConA-induced hepatitis [2]; read-out: IC50_IL-6, concentration resulting in 50% of Imax of IL-6): 13.4 µg/mL (≈ 26.6 µM)
- IC50 (ConA-induced hepatitis [2]; read-out: IC50_TNF-α, concentration resulting in 50% of Imax of TNF-α): 7.97 µg/mL (≈ 15.8 µM)
SMILES: Cn1c(=O)c2c(nc(NCCc3ccccc3)n2CCCC(=O)NN=Cc2ccccc2O)n(C)c1=O [GRMS-55, 4-(1,3-dimethyl-2,6-dioxo-8-(phenethylamino)-1,2,3,6-tetrahydro-7H-purin-7-yl)-N′-(2-hydroxybenzylidene)butanehydrazide]
- effect on serum IL-6 concentration (ConA-induced hepatitis [1]): decreased
- effect on serum IL-4 level (ConA-induced hepatitis [2]; 1, 2 and 8 h post-ConA, both dose groups): decreased
- effect on ALT and AST activities (ConA-induced hepatitis [2]; 50 or 100 mg/kg IP): significant and prominent decrease
- effect on serum IL-12 level (ConA-induced hepatitis [2]; 4 h post-ConA, 50 and 100 mg/kg IP): significantly decreased
- effect on serum IL-1β level (ConA-induced hepatitis [2]; 8 h post-ConA, 50 and 100 mg/kg IP): significantly decreased
- effect on serum IL-17A concentration (ConA-induced hepatitis [2]; 8 h post-ConA, both dose levels): decreased
